In patent publication US20240270762A1, “PENICILLIN-BINDING PROTEIN INHIBITORS” (priority 2021, published 2024):
Converted amounts (≈) assume the structure as drawn.

Legend:
[1] = target: T1, PBP3 from Pseudomonas aeruginosa (PAO1) (Pseudomonas aeruginosa, UniProt G3XD46); assay: Bocillin-FL fluorescence polarization competition binding, P. aeruginosa PBP3; settings: Binding affinity to P. aeruginosa PBP3; fluorescence polarization competition binding assay using Bocillin-FL; read-out: P. aeruginosa PBP3 Potency
T1 construct: made in house
T1 sequence (G3XD46 whole entry): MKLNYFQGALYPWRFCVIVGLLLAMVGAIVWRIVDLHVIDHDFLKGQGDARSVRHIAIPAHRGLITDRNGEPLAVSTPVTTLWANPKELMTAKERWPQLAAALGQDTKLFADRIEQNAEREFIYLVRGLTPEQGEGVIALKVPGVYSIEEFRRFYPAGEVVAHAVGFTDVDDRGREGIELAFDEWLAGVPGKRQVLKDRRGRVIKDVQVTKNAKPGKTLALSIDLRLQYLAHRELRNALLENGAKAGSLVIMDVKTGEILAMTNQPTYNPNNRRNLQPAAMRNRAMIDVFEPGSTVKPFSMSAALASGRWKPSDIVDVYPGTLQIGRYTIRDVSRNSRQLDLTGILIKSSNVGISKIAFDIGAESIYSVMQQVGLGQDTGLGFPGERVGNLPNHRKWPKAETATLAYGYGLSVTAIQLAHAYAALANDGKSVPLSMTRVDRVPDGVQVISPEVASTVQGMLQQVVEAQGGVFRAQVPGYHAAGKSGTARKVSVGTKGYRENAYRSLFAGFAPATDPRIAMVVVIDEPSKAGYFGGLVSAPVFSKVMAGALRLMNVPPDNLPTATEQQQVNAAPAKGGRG
Procedure, shortened: (§1)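 Purified PBP was preincubated with inhibitor (E. coli PBP3 1.5 μM, 30 min; P. aeruginosa PBP3 0.75 μM, A. baumannii PBP3 0.2 μM and PBP1a 1 μM, 15 min), then Bocillin-FL (0.1 μM; 0.05 μM for PBP1a) added and FP read up to 60 min. EC50 = 50% loss of bound probe.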

A. baumannii ATCC 17978 = assay: microbe, parasite or virus in culture; format: cell-based; settings: Acinetobacter baumannii, ATCC17978, read-out: MIC, A. baumannii ATCC 17978
P. aeruginosa CDC-0110 = assay: microbe, parasite or virus in culture; format: cell-based; settings: Pseudomonas aeruginosa, CDC0110, read-out: Minimum inhibitory concentration, P. aeruginosa CDC-0110
A. baumannii CDC-0036 = assay: microbe, parasite or virus in culture; format: cell-based; settings: Acinetobacter baumannii, CDC0036, read-out: MIC, A. baumannii CDC-0036
[2] = target: T2, PBP3 from Acinetobacter baumannii (ATCC 19606) (Acinetobacter baumannii, UniProt A0ABX6CK25); assay: Bocillin-FL fluorescence polarization competition binding, A. baumannii PBP3; settings: fluorescence polarization competition binding assay using Bocillin-FL; read-out: A. baumannii PBP3 Potency
T2 sequence (A0ABX6CK25 64-610): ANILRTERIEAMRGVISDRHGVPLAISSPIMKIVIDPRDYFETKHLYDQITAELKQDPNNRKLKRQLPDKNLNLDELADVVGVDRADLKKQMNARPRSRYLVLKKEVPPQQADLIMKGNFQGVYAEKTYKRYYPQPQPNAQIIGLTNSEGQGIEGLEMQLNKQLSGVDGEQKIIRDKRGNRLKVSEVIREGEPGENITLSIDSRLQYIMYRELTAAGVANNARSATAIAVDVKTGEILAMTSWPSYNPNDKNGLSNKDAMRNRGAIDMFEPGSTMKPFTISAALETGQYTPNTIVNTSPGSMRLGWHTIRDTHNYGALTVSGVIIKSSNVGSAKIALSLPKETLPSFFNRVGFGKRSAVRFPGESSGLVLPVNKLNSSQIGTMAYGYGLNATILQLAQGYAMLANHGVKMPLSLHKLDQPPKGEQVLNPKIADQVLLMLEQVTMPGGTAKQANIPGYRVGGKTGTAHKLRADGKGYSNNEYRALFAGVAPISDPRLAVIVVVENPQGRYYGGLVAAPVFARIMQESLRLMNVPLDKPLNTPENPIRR
Procedure, shortened: as §1

[3] = system: P. aeruginosa (ΔmexAB-oprM); assay: Broth microdilution MIC in iron-depleted CAMHB (IDM); format: cell-based; settings: Pseudomonas aeruginosa; iron-depleted CAMHB (IDM); […]; read-out: Minimum inhibitory concentration, P. aeruginosa ΔmexAB-oprM
A. baumannii 1258916 = assay: microbe, parasite or virus in culture; format: cell-based, Acinetobacter baumannii; settings: Acinetobacter baumannii, 1258916, read-out: MIC, A. baumannii 1258916

SMILES: CS(=O)(=O)N1CCN(C(=O)N[C@H](C(=O)N[C@H]2Cc3cccc(C(=O)O)c3OB2O)c2ccc(P(=O)(O)O)cc2)C1=O (single isomer, unassigned) [Example 5]
- IC50 [1]: 10 to 50 µM

SMILES: CS(=O)(=O)N1CCN(C(=O)N[C@@H](C(=O)N[C@H]2Cc3cccc(C(=O)O)c3OB2O)c2ccc(P(=O)(O)O)cc2)C1=O (single isomer, unassigned) [Example 6]
- MIC (A. baumannii ATCC 17978): 2 to 4 µg/mL (≈ 3.28 to 6.55 µM)
- MIC (P. aeruginosa CDC-0110): 32 to 64 µg/mL (≈ 52.4 to 105 µM)
- IC50 [1]: < 10 µM
- MIC (A. baumannii CDC-0036): 32 to 64 µg/mL (≈ 52.4 to 105 µM)
- IC50 [2]: < 10 µM
- MIC [3]: 8 to 16 µg/mL (≈ 13.1 to 26.2 µM)
- MIC (A. baumannii 1258916): 32 to 64 µg/mL (≈ 52.4 to 105 µM)

SMILES: O=C(O)c1c(F)ccc2c1OB(O)[C@@H](NC(=O)[C@@H](NC(=O)N1CCN(C3CCN(C(=O)Nc4ccc(O)cc4)CC3)C1=O)c1cc(F)c(O)c(O)c1Cl)C2 (single isomer, unassigned) [Example 467]
- MIC (A. baumannii ATCC 17978): < 1 µg/mL
- MIC (P. aeruginosa CDC-0110): < 1 µg/mL
- IC50 [1]: < 10 µM
- MIC (A. baumannii CDC-0036): < 1 µg/mL
- IC50 [2]: < 10 µM
- MIC [3]: < 1 µg/mL
- MIC (A. baumannii 1258916): < 1 µg/mL

SMILES: O=C(NCCCN1CCN(C(=O)N[C@H](C(=O)N[C@H]2Cc3ccc(F)c(C(=O)O)c3OB2O)c2cc(F)c(O)c(O)c2Cl)C(=O)C1=O)c1ccc(O)cc1Cl (single isomer, unassigned) [Example 470]
- MIC (A. baumannii ATCC 17978): < 1 µg/mL
- MIC (P. aeruginosa CDC-0110): 8 to 16 µg/mL (≈ 10.1 to 20.1 µM)
- IC50 [1]: 10 to 50 µM
- MIC (A. baumannii CDC-0036): 32 to 64 µg/mL (≈ 40.3 to 80.6 µM)
- IC50 [2]: 10 to 50 µM
- MIC [3]: < 1 µg/mL
- MIC (A. baumannii 1258916): > 128 µg/mL

SMILES: O=C(NCCCN1CCN(C(=O)N[C@H](C(=O)N[C@H]2Cc3ccc(F)c(C(=O)O)c3OB2O)c2cc(F)c(O)c(O)c2Cl)C(=O)C1=O)c1cc(F)c(O)cc1F (single isomer, unassigned) [Example 472]
- MIC (A. baumannii ATCC 17978): < 1 µg/mL
- MIC (P. aeruginosa CDC-0110): < 1 µg/mL
- IC50 [1]: 10 to 50 µM
- MIC (A. baumannii CDC-0036): 8 to 16 µg/mL (≈ 10.1 to 20.1 µM)
- IC50 [2]: < 10 µM
- MIC [3]: < 1 µg/mL
- MIC (A. baumannii 1258916): 8 to 16 µg/mL (≈ 10.1 to 20.1 µM)

SMILES: CCN1CCN(C(=O)NC(C(=O)N[C@H]2Cc3cccc(C(=O)O)c3OB2O)c2ccc(P(=O)(O)O)cc2F)C(=O)C1=O (stereo partly drawn) [Example 1, (3R)-3-(2-(4-ethyl-2,3-dioxopiperazine-1-carboxamido)-2-(2-fluoro-4-phosphonophenyl)acetamido)-2-hydroxy-3,4-dihydro-2H-benzo[e][1,2]oxaborinine-8-carboxylic acid]
- IC50 [1]: < 10 µM

SMILES: CCN1CCN(C(=O)NC(C(=O)N[C@H]2Cc3cccc(C(=O)O)c3OB2O)c2cc(P(=O)(O)O)ccc2F)C(=O)C1=O (stereo partly drawn) [Example 2, (3R)-3-(2-(4-ethyl-2,3-dioxopiperazine-1-carboxamido)-2-(2-fluoro-5-phosphonophenyl)acetamido)-2-hydroxy-3,4-dihydro-2H-benzo[e][1,2]oxaborinine-8-carboxylic acid]
- IC50 [1]: < 10 µM

SMILES: NCCN1CCN(C(=O)NC(C(=O)N[C@H]2Cc3cccc(C(=O)O)c3OB2O)c2ccc(P(=O)(O)O)cc2)C(=O)C1=O (stereo partly drawn) [Example 3, (3R)-3-(2-(4-(2-aminoethyl)-2,3-dioxopiperazine-1-carboxamido)-2-(4-phosphonophenyl)acetamido)-2-hydroxy-3,4-dihydro-2H-benzo[e][1,2]oxaborinine-8-carboxylic acid]
- IC50 [1]: 10 to 50 µM

SMILES: O=C(O)c1cccc2c1OB(O)[C@@H](NC(=O)C(NC(=O)N1CCN(CC(F)(F)F)C(=O)C1=O)c1ccc(P(=O)(O)O)cc1)C2 (stereo partly drawn) [Example 4, (3R)-3-(2-(2,3-dioxo-4-(2,2,2-trifluoroethyl)piperazine-1-carboxamido)-2-(4-phosphonophenyl)acetamido)-2-hydroxy-3,4-dihydro-2H-benzo[e][1,2]oxaborinine-8-carboxylic acid]
- IC50 [1]: < 10 µM

SMILES: O=C(NCCCS(=O)(=O)N1CCN(C(=O)NC(C(=O)N[C@H]2Cc3ccc(F)c(C(=O)O)c3OB2O)c2cc(F)c(O)c(O)c2Cl)C1=O)Nc1cccnc1 (stereo partly drawn) [Example 278, (3R)-3-(2-(2-chloro-5-fluoro-3,4-dihydroxyphenyl)-2-(2-oxo-3-((3-(3-(pyridin-3-yl)ureido)propyl)sulfonyl)imidazolidine-1-carboxamido)acetamido)-7-fluoro-2-hydroxy-3,4-dihydro-2H-benzo[e][1,2]oxaborinine-8-carboxylic acid]
- MIC (A. baumannii ATCC 17978): < 1 µg/mL
- MIC (P. aeruginosa CDC-0110): 2 to 4 µg/mL (≈ 2.51 to 5.03 µM)
- IC50 [1]: < 10 µM
- MIC (A. baumannii CDC-0036): 2 to 4 µg/mL (≈ 2.51 to 5.03 µM)
- IC50 [2]: < 10 µM
- MIC [3]: < 1 µg/mL
- MIC (A. baumannii 1258916): < 1 µg/mL

SMILES: O=C(NCCCN1CCN(C(=O)NC(C(=O)N[C@H]2Cc3ccc(F)c(C(=O)O)c3OB2O)c2cc(F)c(O)c(O)c2Cl)C1=O)c1cccnc1 (stereo partly drawn) [Example 281, (3R)-3-(2-(2-chloro-5-fluoro-3,4-dihydroxyphenyl)-2-(3-(3-(nicotinamido)propyl)-2-oxoimidazolidine-1-carboxamido)acetamido)-7-fluoro-2-hydroxy-3,4-dihydro-2H-benzo[e][1,2]oxaborinine-8-carboxylic acid]
- MIC (A. baumannii ATCC 17978): < 1 µg/mL
- MIC (P. aeruginosa CDC-0110): 2 to 4 µg/mL (≈ 2.79 to 5.58 µM)
- IC50 [1]: < 10 µM
- MIC (A. baumannii CDC-0036): 2 to 4 µg/mL (≈ 2.79 to 5.58 µM)
- IC50 [2]: < 10 µM
- MIC [3]: < 1 µg/mL
- MIC (A. baumannii 1258916): < 1 µg/mL

SMILES: O=C(NCCCN1CCN(C(=O)N[C@H](C(=O)N[C@H]2Cc3ccc(F)c(C(=O)O)c3OB2O)c2cc(F)c(O)c(O)c2Cl)C1=O)Nc1ccc(O)cc1 [Example 283, (R)-3-((S)-2-(2-chloro-5-fluoro-3,4-dihydroxyphenyl)-2-(3-(3-(3-(4-hydroxyphenyl)ureido)propyl)-2-oxoimidazolidine-1-carboxamido)acetamido)-7-fluoro-2-hydroxy-3,4-dihydro-2H-benzo[e][1,2]oxaborinine-8-carboxylic acid]
- MIC (A. baumannii ATCC 17978): > 128 µg/mL
- MIC (P. aeruginosa CDC-0110): > 128 µg/mL
- IC50 [1]: 50 to 250 µM
- MIC (A. baumannii CDC-0036): > 128 µg/mL
- IC50 [2]: 50 to 250 µM
- MIC [3]: > 128 µg/mL
- MIC (A. baumannii 1258916): > 128 µg/mL

SMILES: O=C(NCCS(=O)(=O)N1CCN(C(=O)N[C@H](C(=O)N[C@H]2Cc3ccc(F)c(C(=O)O)c3OB2O)c2cc(F)c(O)c(O)c2Cl)C1=O)c1ccc(O)cc1 [Example 286, (R)-3-((S)-2-(2-chloro-5-fluoro-3,4-dihydroxyphenyl)-2-(3-((2-(4-hydroxybenzamido)ethyl)sulfonyl)-2-oxoimidazolidine-1-carboxamido)acetamido)-7-fluoro-2-hydroxy-3,4-dihydro-2H-benzo[e][1,2]oxaborinine-8-carboxylic acid]
- MIC (A. baumannii ATCC 17978): > 128 µg/mL
- MIC (P. aeruginosa CDC-0110): > 128 µg/mL
- IC50 [1]: > 250 µM
- MIC (A. baumannii CDC-0036): > 128 µg/mL
- IC50 [2]: 50 to 250 µM
- MIC [3]: > 128 µg/mL
- MIC (A. baumannii 1258916): > 128 µg/mL

SMILES: O=C(NCCS(=O)(=O)N1CCN(C(=O)NC(C(=O)N[C@H]2Cc3ccc(F)c(C(=O)O)c3OB2O)c2cc(F)c(O)c(O)c2Cl)C1=O)c1ccncc1 (stereo partly drawn) [Example 288, (3R)-3-(2-(2-chloro-5-fluoro-3,4-dihydroxyphenyl)-2-(3-((2-(isonicotinamido)ethyl)sulfonyl)-2-oxoimidazolidine-1-carboxamido)acetamido)-7-fluoro-2-hydroxy-3,4-dihydro-2H-benzo[e][1,2]oxaborinine-8-carboxylic acid]
- MIC (A. baumannii ATCC 17978): < 1 µg/mL
- MIC (P. aeruginosa CDC-0110): 2 to 4 µg/mL (≈ 2.61 to 5.22 µM)
- IC50 [1]: < 10 µM
- MIC (A. baumannii CDC-0036): 2 to 4 µg/mL (≈ 2.61 to 5.22 µM)
- IC50 [2]: < 10 µM
- MIC [3]: < 1 µg/mL
- MIC (A. baumannii 1258916): < 1 µg/mL

SMILES: O=C(NCCCS(=O)(=O)N1CCN(C(=O)NC(C(=O)N[C@H]2Cc3ccc(F)c(C(=O)O)c3OB2O)c2cc(F)c(O)c(O)c2Cl)C1=O)Nc1ccncc1 (stereo partly drawn) [Example 291, (3R)-3-(2-(2-chloro-5-fluoro-3,4-dihydroxyphenyl)-2-(2-oxo-3-((3-(3-(pyridin-4-yl)ureido)propyl)sulfonyl)imidazolidine-1-carboxamido)acetamido)-7-fluoro-2-hydroxy-3,4-dihydro-2H-benzo[e][1,2]oxaborinine-8-carboxylic acid]
- MIC (A. baumannii ATCC 17978): < 1 µg/mL
- MIC (P. aeruginosa CDC-0110): 2 to 4 µg/mL (≈ 2.51 to 5.03 µM)
- IC50 [1]: < 10 µM
- MIC (A. baumannii CDC-0036): 2 to 4 µg/mL (≈ 2.51 to 5.03 µM)
- IC50 [2]: < 10 µM
- MIC [3]: < 1 µg/mL
- MIC (A. baumannii 1258916): < 1 µg/mL

SMILES: O=C(O)c1c(F)ccc2c1OB(O)[C@@H](NC(=O)C(NC(=O)N1CCN(Cc3ccc(O)c(O)c3Cl)C(=O)C1=O)c1cc(F)c(O)c(O)c1Cl)C2 (stereo partly drawn) [Example 292, (3R)-3-(2-(4-(2-chloro-3,4-dihydroxybenzyl)-2,3-dioxopiperazine-1-carboxamido)-2-(2-chloro-5-fluoro-3,4-dihydroxyphenyl)acetamido)-7-fluoro-2-hydroxy-3,4-dihydro-2H-benzo[e][1,2]oxaborinine-8-carboxylic acid]
- MIC (A. baumannii ATCC 17978): < 1 µg/mL
- MIC (P. aeruginosa CDC-0110): > 128 µg/mL
- IC50 [1]: < 10 µM
- MIC (A. baumannii CDC-0036): > 128 µg/mL
- IC50 [2]: < 10 µM
- MIC [3]: < 1 µg/mL
- MIC (A. baumannii 1258916): > 128 µg/mL
